In publication PMC9962452, “Modified Linear Peptides Effectively Silence STAT-3 in Breast Cancer and Ovarian Cancer Cell Lines” (Pharmaceutics, 2023):

Tests used:
[1] = tested on: scrambled siRNA; test: SYBR green dye exclusion assay, binding of peptides to siRNA; conditions: scrambled siRNA in normal saline, N/P 0.05 to 40, 30 min room temperature, triplicates, sigmoidal model, value is an N/P ratio
Description: As previously reported, the binding affinity of selected peptides to siRNA was investigated using the SYBR green exclusion assay. The MLPs and scrambled siRNA were mixed in normal saline (in triplicates) with different N/P ratios ranging from 0.05 to 40. The mixture was incubated at room temperature for 30 min to ensure complete complexation of peptides and siRNA. After the incubation time, the complexes were transferred to a black 96-well plate. SYBR green dye solution for this assay was made by diluting 1 part of SYBR green dye with 10,000 parts of purified water. Then, 200 µL of the freshly made SYBR green dye dilution was added to each siRNA complex in the black 96-well plate. The plate was covered with aluminum foil before reading in a micro-plate reader that detected the fluorescent signal (485 nm excitation and 527 nm emission). […] The percentage of the siRNA complexed with the peptide was determined using the following equation: % siRNA bond to peptide=100−Fluorescence signal for complexed siRNA /Fluorescence signal for free siRNA×100 % siRNA bound to the peptide was plotted against a range of nitrogen to phosphate (N/P) ratios used in the experiment, and BR50 (the N/P ratio of the complex required to bind 50% of siRNA) was determined using a sigmoidal model. […]

[2] = tested on: scrambled siRNA; test: Gel retardation / gel shifting assay, binding of peptides to siRNA; conditions: 1% agarose, ethidium bromide, N/P 0 to 60, 30 min room temperature, bands quantified with Image Lab, value is an N/P ratio
Description: In addition to the SYBR green dye exclusion assay described above, the binding affinity of the peptides to siRNA was also determined using the gel retardation/gel shifting assay. Briefly, the MLPs-siRNA complexes were prepared at different N to P ratios ranging from 0 to 60. The N/P ratio of zero represents free siRNA. The tubes containing complexes were incubated at room temperature for 30 min for complete complex formation. After this incubation time, the complexes were mixed with gel-loading dye. Each of the samples was loaded into the wells of 1% agarose gel with (1 μg/mL) ethidium bromide, and […] and 70 Volts were used to run the gel for 20 min. After the run, the gels were visualized under a Bio-Rad imager. The intensity of the bands was quantified by Image Lab software.
To support the data obtained by the SYBR green dye exclusion assay, the binding affinity of the MLPs with siRNA was also determined by the gel retardation assay (Figure 2). For this purpose, the MLPs-siRNA complexes were made in microtubes using purified normal saline at different N to P ratios ranging from 0 to 60. The N to P ratio of 0 represents siRNA only, with no peptide. The solutions in microtubes were allowed to stay at room temperature for 30 min to confer complete complex formation via electrostatic interactions between the MLPs and siRNA. […]

[3] = tested on: MDA-MB-231 cells; test: Confocal microscopy of siRNA internalization; type: cell-based; conditions: N/P ratio 40, 24 h, Alexa Fluor 488-labeled siRNA, comparable to Lipofectamine 2000
Description: In order to visualize and locate the internalized siRNA, samples for confocal microscopy were prepared using MDA-MB-231 cells, adopting the protocol described previously by our lab. Briefly, sterile 6-well plates were used, and sterile coverslips were placed at the bottom of each well. MDA-MB-231 cells suspended in 2 mL of media were seeded in each well, and the plates were incubated in an incubator at standard growth conditions. After incubation, the cells were exposed to MLPs-fluorescent-labeled siRNA complexes at a N/P ratio of 40 using the same method described above for the FACS assay. The treated cells were again incubated for 24 h to allow for the internalization of siRNA. After overnight incubation, the media was drained from each well, and the cells were rigorously washed with HBSS three times, followed by fixation with 3.7% formaldehyde in the HBSS solution. Following fixation, the cells were treated with Texas Red for 1 h at room temperature to stain the cell membrane. After 1 h of staining with Texas Red, the cells were stained with DAPI overnight at room temperature in a dark environment to stain the nuclei. Following successful nuclei staining, the coverslips containing fixed stained cells were transferred to slides for viewing under a high-definition confocal microscope (Nikon A1 R). […]

[4] = tested on: STAT3 in MDA-MB-231 cells; test: Western blot of STAT3 protein after STAT3 siRNA delivery, MDA-MB-231; type: cell-based; conditions: n = 3
Description: The Western blot assay was used to evaluate the expression of STAT-3 protein in MDA-MB-231 cells using the protocol adopted from our previous study. Briefly, the cells were grown in T25 flasks and treated with MLP-siRNA complexes at N/P ratios of 20 and 40 for 48 h. Following treatment, the cells were harvested as pellets in microtubes and were lysed using RIPA lysis buffer supplanted with a protease inhibitor. The lysate was centrifuged for 15 min at 12,000 rpm at 4 °C to allow the separation of all cell proteins. The supernatant containing all cell proteins was separated in pre-cooled microtubes and the protein was quantified using the standard […].
Following the quantification of protein, the samples representing 15 µg of protein were mixed with gel loading dye and loaded in the wells of pre-formed gels and the electrophoresis was carried out at 200 V for 40 min. After the complete run, the gels were transferred to the Western blotting membrane using the Trans-Blot® machine. After successfully transferring gels onto the membrane, the membrane was blocked in 5% Bovine Serum Albumin in TBS-T buffer consisting of 1X tris-buffered saline and 0.1% Tween 20. […] Finally, the membrane was visualized under the Bio-Rad Imager, and the bands were quantified using Image Lab software. […]

AcNH-K(oleyl)-βA-βA-W4-βA-βA-R4-CONH2 [MLP4, oleic acid conjugated peptide, oleyl chain on the Lys side chain]
BC50 ± SD (N/P ratio required for 50% binding of siRNA) [1]: 0.963 ± 0.34 | BC50 (from quantified gel bands) [2]: 0.9001 | Internalization of siRNA seen by confocal microscopy [3]: significant internalization of siRNA in the cytosol | Downregulation of STAT3 protein ([4]; N/P ratio 20, 48 h): > 90% | Downregulation of STAT3 protein ([4]; N/P ratio 40, 48 h, GAPDH housekeeping): > 90%
